According to PMC9487482, “Activity of Tricyclic Pyrrolopyrimidine Gyrase B Inhibitor against Mycobacterium abscessus” (Antimicrobial Agents and Chemotherapy, 2022):

Target: T1, DNA gyrase subunit B (GyrB) (Mycobacteroides abscessus, UniProt B1ME45)
T1 construct: recombinant M. abscessus ATCC 19977 DNA gyrase (A2B2 heterotetramer); with DNA gyrase subunit A (GyrA)
Test: DNA supercoiling inhibition assay (relaxed pBR322, agarose gel)
Assay type: biochemical

T1 sequence (B1ME45 entry or part of it): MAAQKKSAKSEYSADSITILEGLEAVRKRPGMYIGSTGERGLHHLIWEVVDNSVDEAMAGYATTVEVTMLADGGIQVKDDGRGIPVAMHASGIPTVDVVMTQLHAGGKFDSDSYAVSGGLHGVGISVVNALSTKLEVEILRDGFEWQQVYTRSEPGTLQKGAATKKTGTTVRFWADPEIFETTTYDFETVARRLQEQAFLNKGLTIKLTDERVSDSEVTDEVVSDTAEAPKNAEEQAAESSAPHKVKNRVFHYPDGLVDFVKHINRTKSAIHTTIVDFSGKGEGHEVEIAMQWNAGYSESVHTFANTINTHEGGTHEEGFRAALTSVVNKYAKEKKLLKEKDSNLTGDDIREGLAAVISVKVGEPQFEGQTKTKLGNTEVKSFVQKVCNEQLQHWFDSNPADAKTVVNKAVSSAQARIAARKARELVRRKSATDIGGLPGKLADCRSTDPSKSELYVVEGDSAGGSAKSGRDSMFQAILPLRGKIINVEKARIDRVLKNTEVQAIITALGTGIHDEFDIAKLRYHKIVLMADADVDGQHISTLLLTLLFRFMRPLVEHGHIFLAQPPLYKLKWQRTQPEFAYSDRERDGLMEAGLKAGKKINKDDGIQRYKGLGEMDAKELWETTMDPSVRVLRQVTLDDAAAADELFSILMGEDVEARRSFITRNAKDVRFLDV
T1 sequence (B1ME58 entry or part of it, further chain): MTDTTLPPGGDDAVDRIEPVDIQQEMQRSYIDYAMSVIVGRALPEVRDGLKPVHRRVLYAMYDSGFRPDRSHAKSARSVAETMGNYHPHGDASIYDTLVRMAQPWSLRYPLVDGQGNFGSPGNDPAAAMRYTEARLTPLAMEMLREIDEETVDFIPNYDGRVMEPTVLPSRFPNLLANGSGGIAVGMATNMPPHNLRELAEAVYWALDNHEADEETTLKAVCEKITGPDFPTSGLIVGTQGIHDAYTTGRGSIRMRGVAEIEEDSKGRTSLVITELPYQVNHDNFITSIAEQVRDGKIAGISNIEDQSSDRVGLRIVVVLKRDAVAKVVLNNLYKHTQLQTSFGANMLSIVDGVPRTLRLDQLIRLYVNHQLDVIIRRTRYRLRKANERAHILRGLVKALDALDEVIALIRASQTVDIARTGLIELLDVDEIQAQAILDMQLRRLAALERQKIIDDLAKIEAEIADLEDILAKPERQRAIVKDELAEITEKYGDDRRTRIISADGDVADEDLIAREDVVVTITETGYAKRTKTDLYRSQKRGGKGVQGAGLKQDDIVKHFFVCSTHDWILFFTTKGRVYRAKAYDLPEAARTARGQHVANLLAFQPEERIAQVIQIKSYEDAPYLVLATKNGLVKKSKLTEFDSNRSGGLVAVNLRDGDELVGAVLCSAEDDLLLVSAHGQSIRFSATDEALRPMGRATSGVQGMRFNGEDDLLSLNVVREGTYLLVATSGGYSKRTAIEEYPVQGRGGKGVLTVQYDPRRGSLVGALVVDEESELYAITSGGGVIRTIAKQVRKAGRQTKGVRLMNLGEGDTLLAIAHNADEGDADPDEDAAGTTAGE

## CCNC(=O)Nc1nc2cc(-c3cnc(C(C)(C)O)nc3)c(F)c([C@H]3CCCO3)c2[nH]1 [SPR719]
  IC50: 1 µM
